This data set in a line: Human HepG2 cell viability assay in 384 well format. The conditions noted are these: HepG2 cells, read-out: Inhibition. In kind it is toxicity, cell-based. The arrangement: dose 125 nL, time 70.5 hour; concentration not given beside the values.
In the case of `COC(=O)c1ccc(C(=O)N2CCC(c3nnc(C)s3)CC2)cc1`, the cytotoxicity at 70.5 h is -10.2%.

Take `O=S(=O)(c1cccs1)N1CCN(Cc2nc(-c3ccco3)cs2)CC1`: the cytotoxicity at 70.5 h was found to be 1.85%.

In the case of `O=S(=O)(c1ccc(Cl)s1)N1CCN(Cc2nc(-c3ccco3)cs2)CC1`, the cytotoxicity at 70.5 h was -13.8%.

Turning to `CCS(=O)(=O)N1CCC(c2nnc(C3CC3)o2)CC1`, the cytotoxicity at 70.5 h amounted to 3.63%.

On to `CC(C)CNC(=O)c1cn(C(C)C)cc2c(=O)[nH]nc1-2`, for which the cytotoxicity at 70.5 h is -7.94%.

As for `CC(C)n1cc(C(=O)NCCCn2ccnc2)c2n[nH]c(=O)c-2c1`, the cytotoxicity at 70.5 h was -6.63%.

In the case of `Cc1csc(NC(=O)Cn2nc(C)ccc2=O)n1`, the cytotoxicity at 70.5 h is -9.42%.

In the case of `COCCc1nnc(NC(=O)Cc2ccccc2Cl)o1`, the cytotoxicity at 70.5 h was -13.9%.

Take `Cc1nccn1CC1CCN(C(=O)c2ccccc2)CC1`: the cytotoxicity at 70.5 h was -7.01%.

For the compound `COc1ccc(S(=O)(=O)N2CCC(Cn3ccnc3)CC2)cc1`, the cytotoxicity at 70.5 h was -6.35%.

`CS(=O)(=O)N1CCC(C(=O)N2CCC(Cn3cccn3)CC2)CC1`: the cytotoxicity at 70.5 h is -12.3%.

For the compound `O=C(Nc1ccc(CC(=O)N2CCCC2)cc1)NC1CC1`, the cytotoxicity at 70.5 h was -7.44%.

As to `O=C(CSC1CCCC1)N1CCN(C(=O)C2CC2c2cccs2)CC1` (stereo not given), the cytotoxicity at 70.5 h came out at 33.2%.

Regarding `O=C(NCC(O)(c1ccco1)C1CC1)c1ccccc1F` (stereo not given), the cytotoxicity at 70.5 h was -14.8%.

Take `Cn1cccc1C(O)CNC(=O)c1cccc(Cl)c1` (stereo not given): the cytotoxicity at 70.5 h was -9.53%.

Take `Cc1c(Cl)cccc1S(=O)(=O)NCC(O)c1cccn1C` (stereo not given): the cytotoxicity at 70.5 h was -3.24%.

Consider `Cc1ccsc1C(O)CNC(=O)Cc1ccc(S(=O)(=O)C(C)C)cc1` (stereo not given), for which the cytotoxicity at 70.5 h is -13.3%.

For the compound `COc1ccc(CC(C)(O)CNC(=O)Cc2cccs2)cc1` (stereo not given), the cytotoxicity at 70.5 h turned out to be 11.8%.

With `O=S(=O)(NCC1(O)CCCC1)c1ccccc1Br`, the cytotoxicity at 70.5 h is -0.293%.

As for `CCCc1nnsc1C(=O)NCC(O)c1cccs1` (stereo not given), the cytotoxicity at 70.5 h is -6.4%.

In the case of `Cc1ccccc1NC(=O)NCC(C)(O)c1cccs1` (stereo not given), the cytotoxicity at 70.5 h was 4.31%.

With `CCS(=O)(=O)N1CCN(CC(F)(F)F)CC1`, the cytotoxicity at 70.5 h was -5.53%.

`O=C(Cn1cnc(-c2cccs2)cc1=O)Nc1cccnc1`: the cytotoxicity at 70.5 h was -4.25%.

As for `CC(=O)Nc1ccc(C(=O)NCCCn2cccc2)cc1`, the cytotoxicity at 70.5 h was -14.1%.

As to `O=C(NCC1(CO)CC1)c1ccccc1Br`, the cytotoxicity at 70.5 h was -8.75%.

Take `COCC(C)(O)CNC(=O)Nc1cccc(OC)c1OC` (stereo not given): the cytotoxicity at 70.5 h is -11%.

Take `COC1COC2(CCN(C(=O)c3cocn3)CC2)C1` (stereo not given): the cytotoxicity at 70.5 h was -8.06%.

Take `O=C(C1CC1)N1CC[C@H]2C(=O)N(c3ccsc3)CCO[C@H]2C1`: the cytotoxicity at 70.5 h was -11.7%.

`O=C(Nc1ccccc1)C1=NOC2(CCCNC2)C1` (stereo not given): the cytotoxicity at 70.5 h came out at 18.4%.

Regarding `CC(=O)N1CC2(CCN(C(=O)N(C)C)CC2)c2cc(C)ccc21`, the cytotoxicity at 70.5 h was determined as 5.58%.

For the compound `CN(Cc1cccnc1)C1CC2(CCN(C(=O)c3cscn3)CC2)C1`, the cytotoxicity at 70.5 h came out at 8.2%.

Take `Cc1ccc(N2CCC3(CCN(Cc4csc(C)n4)CC3)CC2)nn1`: the cytotoxicity at 70.5 h is -6.42%.

With `Cn1cccc1C(=O)N1CCCC2(CCCN2S(C)(=O)=O)C1` (stereo not given), the cytotoxicity at 70.5 h was -8.52%.

For the compound `CC(=O)N1CC2(CCN(C(=O)CO)CC2)c2cc(C)ccc21`, the cytotoxicity at 70.5 h is -4.93%.

Regarding `CS(=O)(=O)N1C[C@@H]2CCN(C(=O)c3ccco3)[C@@H]2C1`, the cytotoxicity at 70.5 h is -2.6%.

Take `CS(=O)(=O)N1C[C@@H]2COC[C@@H](CC(=O)N3CCCCO3)[C@@H]2C1`: the cytotoxicity at 70.5 h worked out at 5.89%.

Take `Cc1ccnc(OC[C@@]23CCO[C@@H]2CCN(S(C)(=O)=O)C3)n1`: the cytotoxicity at 70.5 h was -7.11%.

Consider `CCOCC1CN(CCc2ccccc2)Cc2c1cnn2C` (stereo not given), for which the cytotoxicity at 70.5 h was determined as 10.7%.

In the case of `O=C(Cc1ccccn1)N1CCC2(CCCN(CC3CCOCC3)C2)C1` (stereo not given), the cytotoxicity at 70.5 h was -0.432%.

For `Cc1ccc2c(c1)C1(CCN(S(C)(=O)=O)CC1)CN2C(=O)N(C)C`, the cytotoxicity at 70.5 h is 4.29%.

For the compound `Cc1nc([C@@H]2C[C@H]3CN(Cc4scnc4C)C[C@H]3O2)no1`, the cytotoxicity at 70.5 h was 5.82%.

In the case of `Cc1nc(N2CCOCC2)nc2c1COCC21CCN(CC(C)C)C1` (stereo not given), the cytotoxicity at 70.5 h is -5.39%.

As to `CCCS(=O)(=O)N1Cc2nccn2CC(Cn2cccn2)C1` (stereo not given), the cytotoxicity at 70.5 h is -2.32%.

With `CCOCC1CN(CCOCc2ccccc2)Cc2c1cnn2C` (stereo not given), the cytotoxicity at 70.5 h is -3.18%.

Consider `O=C(C1CCOC1)N1C[C@H]2CN(c3ccccc3)C(=O)[C@H]2C1` (stereo not given in full), for which the cytotoxicity at 70.5 h was -4.87%.

On to `COc1nn(C)c2c1CCCN(S(=O)(=O)c1cccc(F)c1)C2`, for which the cytotoxicity at 70.5 h was -4.75%.

On to `c1ccc(NC[C@@H]2CCC[C@@H]3CN(Cc4csnn4)C[C@@H]32)nc1`, for which the cytotoxicity at 70.5 h is -5.27%.

For `Cn1cnc(S(=O)(=O)N2CCO[C@H]3[C@@H](OCC4CC4)CC[C@@H]32)c1`, the cytotoxicity at 70.5 h was found to be 11.1%.

Take `O=C(NC[C@H]1OC[C@@H]2CCN(c3ccccn3)C[C@@H]21)c1ccco1`: the cytotoxicity at 70.5 h was -1.04%.

As for `CCO[C@@H]1CC[C@H]2[C@H]1OCCN2S(=O)(=O)c1cn(C)cn1`, the cytotoxicity at 70.5 h is -1.5%.

For the compound `O=C1Nc2ccccc2CC12CCN(CCO)C2` (stereo not given), the cytotoxicity at 70.5 h was -6.04%.

As to `O=C(c1c2c(N3CCCC3)ncnc2n2ccccc12)N1CCOCC1`, the cytotoxicity at 70.5 h is -5.97%.

Turning to `CS(=O)(=O)N1CCOCC12CCN(c1nncs1)CC2`, the cytotoxicity at 70.5 h was 5.03%.

On to `O=C(c1cscn1)N1CC[C@@H]2[C@@H]1CCN2c1ccccn1`, for which the cytotoxicity at 70.5 h is -2.32%.

Turning to `O=C(Cn1nc(N2CCOCC2)ccc1=O)Nc1nccs1`, the cytotoxicity at 70.5 h stood at 15%.

For `CCOC(=O)N1CCN(C(=O)c2snnc2-c2ccc(OC)cc2)CC1`, the cytotoxicity at 70.5 h was -11.6%.

As to `CCN1CCc2c(sc3c2C(=O)NC(/C=C/c2ccco2)N3)C1` (stereo not given), the cytotoxicity at 70.5 h was 43.7%.

As for `O=C(c1cn(-c2ccccc2Cl)nn1)N1CCSCC1`, the cytotoxicity at 70.5 h was determined as 15.4%.

Turning to `COc1cccc(CNC(=O)c2cccnc2N)c1`, the cytotoxicity at 70.5 h amounted to 6.88%.

On to `O=C(CN1CCN(CC(O)C2CC2)CC1)NCc1ccccc1` (stereo not given), for which the cytotoxicity at 70.5 h was -8.44%.

Consider `OC(CN1CCN(Cc2ccccc2)CC1)C1CC1` (stereo not given), for which the cytotoxicity at 70.5 h is -10.4%.

Consider `CC(C)N1CC[C@@H]2[C@H](COCC3CC3)CN(C)C(=O)[C@@H]2CC1`, for which the cytotoxicity at 70.5 h amounted to 4.19%.

For `O=C(c1cnccn1)N1CC[C@@H]2CO[C@@H](CN3CCCC3)[C@@H]2C1`, the cytotoxicity at 70.5 h was -5.22%.

As for `Cc1noc(C)c1CNCC1COCc2c(-c3ccoc3)nnn2C1` (stereo not given), the cytotoxicity at 70.5 h was -9.07%.

In the case of `CCc1ncnc2c1CCN(Cc1nccs1)CC2`, the cytotoxicity at 70.5 h was -7.4%.

With `CN(C)c1ncnc2c1CCN(Cc1nccs1)CC2`, the cytotoxicity at 70.5 h is -6.81%.

Turning to `O=C(C[C@@H]1COC[C@H]2CN(C3CCCC3)C[C@@H]12)N1CCCCO1`, the cytotoxicity at 70.5 h is -0.83%.

As to `O=S(=O)(NC[C@]12COC[C@H]1CN(CCc1ccccc1)C2)C1CC1`, the cytotoxicity at 70.5 h was -2.87%.

Consider `Cc1nc(N2CCCC2)nc2c1CCN(Cc1ccsc1)CC2`, for which the cytotoxicity at 70.5 h was 6.56%.

For `CCN1C[C@@H]2[C@@H](OC)CCN(C(=O)c3cc(C)nn3CC)[C@@H]2C1`, the cytotoxicity at 70.5 h is 8.5%.

As for `CNC(=O)[C@H]1C[C@H]2OCC[C@H]2N(CCOc2ccc(Cl)cc2)C1`, the cytotoxicity at 70.5 h is -1.59%.

For `c1ncn(Cc2cn3c(n2)CN(CC2CCCCC2)CC3)n1`, the cytotoxicity at 70.5 h was -3.74%.

Regarding `O=C(Cc1ccsc1)N1CCCC2(COCCN(CC3CC3)C2)C1` (stereo not given), the cytotoxicity at 70.5 h stood at 1.23%.

For `O=C1[C@H]2CN(CC3CCOCC3)C[C@H]2CN1Cc1cccc(F)c1`, the cytotoxicity at 70.5 h is 4.65%.

For `CCOCC(=O)N1CCC2(CC1)COC(COCc1ccccn1)C2` (stereo not given), the cytotoxicity at 70.5 h was 4.72%.

As for `COCC(=O)N1CCC2(CC1)COC(COCc1ccccn1)C2` (stereo not given), the cytotoxicity at 70.5 h was 1.98%.

Turning to `Cc1nc(N2CCOCC2)nc2c1CCN(Cc1ccsc1)CC2`, the cytotoxicity at 70.5 h is 1.35%.

With `CCCS(=O)(=O)N1Cc2nccn2CC(CN(C)C)C1` (stereo not given), the cytotoxicity at 70.5 h was -10.3%.

As for `Cc1noc([C@@H]2C[C@H]3CN(Cc4scnc4C)C[C@H]3O2)n1`, the cytotoxicity at 70.5 h is -4.75%.

In the case of `COc1cccc(C(=O)N2CC[C@@H]3[C@H](CC2)N(C)CCS3(=O)=O)c1`, the cytotoxicity at 70.5 h was -5.98%.

For `Cc1nc(N2CCCC2)nc2c1CCN(Cc1ccoc1)CC2`, the cytotoxicity at 70.5 h is -6.88%.

Turning to `O=C(c1ccoc1)N1CCC2(CC1)COC(COc1ccccn1)C2` (stereo not given), the cytotoxicity at 70.5 h was -4.94%.

`CN(C)C(=O)[C@@H]1C[C@H]2OCC[C@H]2N(CCOc2ccc(Cl)cc2)C1`: the cytotoxicity at 70.5 h is -4.26%.

For the compound `CCOCc1cnc2n1CCN(Cc1scnc1C)C2C` (stereo not given), the cytotoxicity at 70.5 h was -3.25%.

Consider `CN(C)[C@@H]1CCN(C(=O)NC2CCCC2)[C@H]1Cc1ccncc1`, for which the cytotoxicity at 70.5 h was -9.4%.

For `Cc1cccc(CN2C[C@H]3CCC[C@@]3(COCc3csc(C)n3)C2)n1`, the cytotoxicity at 70.5 h is -6.32%.

Turning to `Cc1cccc(N2CCC3(CCN(Cc4ccccn4)CC3)CC2)n1`, the cytotoxicity at 70.5 h is -9.07%.

Consider `Cc1cccc(CN2CCc3c(COCC(=O)N(C)C)nn(C)c3C2)n1`, for which the cytotoxicity at 70.5 h was 0.676%.

Consider `CN(C)Cc1cn2c(n1)CN(CC1CCCC1)CC2`, for which the cytotoxicity at 70.5 h was -6.79%.

Turning to `CC(C)(C)NC[C@@H]1CCC[C@@H]2CN(Cc3csnn3)C[C@@H]21`, the cytotoxicity at 70.5 h was -2.73%.

In the case of `Cc1cnc(N2CC[C@@H]3CN(Cc4ccncc4)CCO[C@@H]3C2)nc1`, the cytotoxicity at 70.5 h was 8.21%.

For the compound `c1ccc(N2CC[C@@H]3CN(Cc4ccncc4)CCO[C@@H]3C2)cc1`, the cytotoxicity at 70.5 h was -1.73%.

As for `Cc1ncsc1CN1CCn2c(COc3cccnc3)cnc2C1C` (stereo not given), the cytotoxicity at 70.5 h was -2.69%.

As for `CN(Cc1cccnc1)C[C@@H]1OC[C@H]2CN(Cc3ccoc3)CC[C@H]21`, the cytotoxicity at 70.5 h is -0.956%.

For the compound `Cc1cc(CN2C[C@@H](N3CCN(C)CC3)[C@H]3OCCC[C@H]32)oc1C`, the cytotoxicity at 70.5 h was -4.18%.
